Here are results for 3 compounds from PMC10702189, “Tetrazine Glycoconjugate for Pretargeted Positron Emission Tomography Imaging of trans-Cyclooctene-Functionalized Molecular Spherical Nucleic Acids” (ACS Omega, 2023).

Assay [1] concerns the target T1, GLUT1 (Homo sapiens, UniProt P11166).
T1 construct: host or cells: CAL27 squamous cell carcinoma cells
T1 sequence (P11166 1-492): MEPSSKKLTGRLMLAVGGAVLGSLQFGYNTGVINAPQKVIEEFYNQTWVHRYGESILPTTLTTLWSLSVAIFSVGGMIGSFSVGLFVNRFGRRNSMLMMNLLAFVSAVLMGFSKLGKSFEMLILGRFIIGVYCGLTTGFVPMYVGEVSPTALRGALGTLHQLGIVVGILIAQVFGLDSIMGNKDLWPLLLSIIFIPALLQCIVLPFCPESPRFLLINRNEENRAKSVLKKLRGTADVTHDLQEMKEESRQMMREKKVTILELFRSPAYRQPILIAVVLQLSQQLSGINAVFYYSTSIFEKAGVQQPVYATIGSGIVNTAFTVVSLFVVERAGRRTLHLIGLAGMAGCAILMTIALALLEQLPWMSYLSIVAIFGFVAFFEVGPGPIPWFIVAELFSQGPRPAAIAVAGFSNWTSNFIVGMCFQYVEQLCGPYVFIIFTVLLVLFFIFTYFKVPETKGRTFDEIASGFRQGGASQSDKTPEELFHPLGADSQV
The experiment in a line: Competition for GLUT1 binding with D-[14C]-glucose in CAL27 cells. In kind it is cell-based. The settings on record: for IC50: 5 min at r.t., 1.8 μM D-[14C]-glucose, compounds 0.5–1400 μM, read-out: IC50, inhibition of D-[14C]-glucose (GLUT1 binding affinity). As for the experimental part: (§1) CAL27 squamous cell carcinoma cells (ATCC CRL-2095) were purchased from the American Type Culture Collection (ATCC, Manassas, VA, USA). CAL27 cells were cultured in Dulbecco’s modified Eagle medium (DMEM; Gibco, ThermoFisher Scientific, Waltham, MA, USA) supplemented with L-glutamine (2.0 mM; ThermoFisher Scientific, Waltham, MA, USA), heat-inactivated fetal bovine serum (10%; Gibco, ThermoFisher Scientific, Waltham, MA, USA), and penicillin (50 U/mL)–streptomycin (50 μg/mL) solution (ThermoFisher Scientific, Waltham, MA, USA). CAL27 cells (passages 6–10) were seeded at the density of 5 × 10^5 cells/wells onto 24-well plates. The cells were used in affinity and uptake studies 2 days after seeding. The culture medium was removed, and the cells were washed with prewarmed Hank’s balanced salt solution (HBSS) without glucose (HBSS; 125 mM NaCl, 4.8 mM KCl, 1.2 mM MgSO4, 1.3 mM KH2PO4, 1.3 mM CaCl2, and 25 mM HEPES adjusted to pH 7.4). The cells were then incubated with HBSS at 37 °C for 10 min before the experiments.
The GLUT1-binding ability of the studied compounds was performed by using a known radiolabeled GLUT1 substrate, D-[^14C]-glucose (PerkinElmer, Waltham, MA, USA). Briefly, after preincubation with 500 μL of prewarmed glucose free HBSS, the cells were incubated at r.t. for 5 min with studied compounds (0.5–1400 μM) containing 1.8 μM (0.1 mCi/mL) of D-[^14C]-glucose in glucose free HBSS (250 μL) and D-[^14C]-glucose as blank. The reaction was stopped with ice-cold buffer, and the cells were washed two times with ice-cold buffer on the ice bath, lysed with 250 μL of 1% perchloric acid, and mixed with 1.0 mL of emulsifier safe cocktail (PerkinElmer, Waltham, MA, USA). The radioactivity was measured by a liquid scintillation counter (MicroBeta[2] counter, PerkinElmer, Waltham, MA, USA), (Figure S12). Half-maximal inhibitory concentration (IC50) was calculated by nonlinear regression analysis.

For a further assay, the system named is CAL27 cell line. The assay can be described thus: Concentration-dependent cell uptake in CAL27 cells (LC-MS/MS). In kind it is cell-based, human. Conditions: 5–400 μM, 5 min; for Km: read-out: Km of cellular uptake. The procedure:
as §1
The cells were first preincubated as described above. The cell uptake of these novel compounds was studied by adding 5–400 μM of studied compounds in 250 μL of prewarmed glucose free HBSS buffer on top of the cell layer and incubating the cells at r.t. for 5 min, based on the optimal performance of D-[^14C]-glucose under these conditions. After incubation, the reaction was stopped with ice-cold buffer; the cells were then washed and lysed as described above.
For the LC-MS/MS analysis, an aliquot was taken from the lysates and diluted with acidified acetonitrile (0.1% formic acid) 1:1, including internal standard (IS). FDG-Tz was used as an internal standard for FDR-Tz, and vice versa. After protein precipitation, the samples were centrifuged for 10 min with 10,000 × g at 4 °C. The supernatant was then collected and transferred to vials for LC-MS/MS analysis.
The samples were analyzed with LC-MS/MS coupled with an Agilent 1200 series Rapid Resolution LC System (Agilent Technologies, Waldbronn, Germany) and Agilent 6410 Triple Quadrupole with an electrospray ionization (ESI) (Agilent Technologies, Palo Alto, CA, USA). The samples were injected (5 μL) into the reversed-phase HPLC column (Zorbax Eclipse XDB-C18 Rapid Resolution 4.6 × 50 mm, […], Agilent Technologies, Palo Alto, CA, USA). The aqueous mobile phase was 0.1% formic acid in water (A), while the organic mobile phase was 0.1% formic acid in acetonitrile (B).
The column temperature was 40 °C and the flow rate of 0.5 mL/min was used, with the following gradient 0–4 min: 5% → 95% B, 4–6 min: 95% B, 6–6.1 min: 95% → 5% B, 6.1–8 min: 5% B. The following instrument optimizations were used: 300 °C sheath gas heat, 6.5 L/min drying gas flow, 25 psi nebulizer pressure, and 4000 V capillary voltage, respectively. Detection was performed by using multiple reaction monitoring (MRM) with the following transitions: m/z 425 → 261 for FDG-Tz and m/z 395 → 261 for FDR-Tz.
The lower limit of quantification (LLOQ) for both studied compounds was 5 nM. These LC-MS/MS methods were also selective, accurate (RSD < 15%) and precise (RSD < 15%) over the range 5.0–2500 nM, with good linearity (R^2 > 0.993).
Three replicates were analyzed from each concentration, and the statistical analyses were performed using GraphPad Prism v.5.03 software (GraphPad Software, San Diego, CA, USA).

Assay [2] concerns the target T1, GLUT1. Details: method as in PMID 33390018. Conditions: CAL27 cells; cited from earlier work.

SMILES strings stand for the structures. Where two headings read alike, the source gives them in different places. Where only a bound is given, the exact number is not on record here.

In the case of `O=C(CON=C[C@@H](O)[C@@H](O)[C@@H](O)CF)NCc1ccc(-c2nncnn2)cc1` [FDR-Tz, N-(4-(1,2,4,5-tetrazin-3-yl)benzyl)-2-((((2R,3R,4R)-5-fluoro-2,3,4-trihydroxypentylidene)amino)oxy)acetamide, reference compound], on GLUT1 [1], the concentration for half-maximal inhibition (IC50) came to 22.4 µM. In addition, at GLUT1 [1] (ratio of IC50 values), the “Fold higher affinity for GLUT1 compared to FDG-Tz” value was roughly 15 times. Besides, in the assay on CAL27 cell line, the “Vmax of cellular uptake” value is given as 27.8 ± 3.7 pmol/min/mg of protein and the Michaelis constant (Km) was 3.6 ± 7.8 µM.

Regarding `O=C(CON=C[C@H](F)[C@@H](O)[C@H](O)C(O)CO)NCc1ccc(-c2nncnn2)cc1` (stereo partly drawn) [FDG-Tz, N-(4-(1,2,4,5-tetrazin-3-yl)benzyl)-2-((((2S,3S,4R)-2-fluoro-3,4,5,6-tetrahydroxyhexylidene)amino)oxy)acetamide], the concentration for half-maximal inhibition (IC50) at GLUT1 [1] turned out to be 324 µM. In the assay on CAL27 cell line, the “Concentration dependence of cellular uptake (shape of curve)” value is “concentration-dependent”, the “Vmax of cellular uptake” value is listed as 63.2 ± 8.5 pmol/min/mg of protein and the Km is 27.6 ± 13.8 µM.

For the compound `OC[C@H]1OC(O)[C@H](O)[C@@H](O)[C@@H]1O` (stereo partly drawn) [D-glucose], the IC50 at GLUT1 [2] is greater than 1000 µM.
